According to ChEMBL document CHEMBL4715813, “Allicin-inspired pyridyl disulfides as antimicrobial agents for multidrug-resistant Staphylococcus aureus” (Eur J Med Chem, 2018):

Experiments:
Assay type in all cases: functional
[1] = test system: Enterococcus faecalis; experiment: Antibacterial activity against vancomycin-susceptible Enterococcus faecalis ATCC 29212 assessed as zone of inhibition by disc diffusion method; further: test concentration or dose not given here
[2] = test system: Acinetobacter baumannii; experiment: Antibacterial activity against Acinetobacter baumannii ATCC 19606 assessed as zone of inhibition by disc diffusion method; further: test concentration or dose not given here
[3] = test system: Escherichia coli; experiment: Antibacterial activity against beta-lactam resistant Escherichia coli BAA 2326 assessed as zone of inhibition by disc diffusion method; further: test concentration or dose not given here
[4] = test system: Klebsiella pneumoniae; experiment: Antibacterial activity against multidrug-resistant Klebsiella pneumoniae ATCC 700603 assessed as zone of inhibition by disc diffusion method; further: test concentration or dose not given here
[5] = test system: Staphylococcus epidermidis; experiment: Antibacterial activity against Staphylococcus epidermidis ATCC 14990 assessed as zone of inhibition by disc diffusion method; further: test concentration or dose not given here
[6] = test system: Enterococcus faecium; experiment: Antibacterial activity against vancomycin-resistant Enterococcus faecium ATCC 700221 assessed as zone of inhibition by disc diffusion method; further: test concentration or dose not given here
[7] = test system: Bacillus anthracis; experiment: Antibacterial activity against Bacillus anthracis Sterne 34F2 assessed as zone of inhibition by disc diffusion method
[8] = test system: Staphylococcus aureus; experiment: Antibacterial activity against heterogeneous vancomycin-intermediate resistant Staphylococcus aureus Mu3 ATCC 700698 assessed as zone of inhibition by disc diffusion method; further: test concentration or dose not given here
[9] = test system: Pseudomonas aeruginosa; experiment: Antibacterial activity against Pseudomonas aeruginosa ATCC 15422 assessed as zone of inhibition by disc diffusion method; further: test concentration or dose not given here
[10] = test system: Staphylococcus aureus; experiment: Antibacterial activity against community acquired methicillin-resistant Staphylococcus aureus BAA 1747 assessed as zone of inhibition by disc diffusion method; further: test concentration or dose not given here
[11] = test system: Staphylococcus aureus; experiment: Antibacterial activity against vancomycin-resistant Staphylococcus aureus HIP11714 assessed as zone of inhibition by disc diffusion method; further: test concentration or dose not given here
[12] = test system: Enterobacter cloacae; experiment: Antibacterial activity against Enterobacter cloacae ATCC 23355 assessed as zone of inhibition by disc diffusion method; further: test concentration or dose not given here
[13] = test system: Staphylococcus aureus; experiment: Antibacterial activity against hospital acquired methicillin-resistant Staphylococcus aureus ATCC 43300 assessed as zone of inhibition by disc diffusion method; further: test concentration or dose not given here
[14] = test system: Staphylococcus aureus; experiment: Antibacterial activity against vancomycin-intermediate resistant Staphylococcus aureus Mu50 ATCC 700699 assessed as zone of inhibition by disc diffusion method; further: test concentration or dose not given here
[15] = test system: Acinetobacter baumannii; experiment: Antibacterial activity against multidrug-resistant Acinetobacter baumannii BAA 1605 assessed as zone of inhibition by disc diffusion method; further: test concentration or dose not given here
[16] = test system: Staphylococcus aureus; experiment: Antibacterial activity against methicillin-susceptible Staphylococcus aureus ATCC 25923 assessed as zone of inhibition by disc diffusion method; further: test concentration or dose not given here

| SMILES | diameter of the inhibition zone (DIZ) [1] [mm] | diameter of the inhibition zone (DIZ) [2] [mm] | diameter of the inhibition zone (DIZ) [3] [mm] | diameter of the inhibition zone (DIZ) [4] [mm] | diameter of the inhibition zone (DIZ) [5] [mm] | diameter of the inhibition zone (DIZ) [6] [mm] | diameter of the inhibition zone (DIZ) [7] [mm] | diameter of the inhibition zone (DIZ) [8] [mm] | diameter of the inhibition zone (DIZ) [9] [mm] | diameter of the inhibition zone (DIZ) [10] [mm] | diameter of the inhibition zone (DIZ) [11] [mm] | diameter of the inhibition zone (DIZ) [12] [mm] | diameter of the inhibition zone (DIZ) [13] [mm] | diameter of the inhibition zone (DIZ) [14] [mm] | diameter of the inhibition zone (DIZ) [15] [mm] | diameter of the inhibition zone (DIZ) [16] [mm] |
| --- | --- | --- | --- | --- | --- | --- | --- | --- | --- | --- | --- | --- | --- | --- | --- | --- |
| CCCCSSc1ccccn1 | 15 | 0 | 0 | 0 | 22 | 0 | 48 | 0 | 0 | 0 | 0 | 9 | 0 | 0 | 0 | 0 |
| CCC(C)SSc1ccccn1 (configuration not stated) | 0 | 0 | 0 | 0 | 20 | 0 | 23 | 0 | 0 | 0 | 0 | 0 | 0 | 0 | 0 | 0 |
| c1ccc(SSC2CCCCC2)nc1 | 0 | 0 | 0 | 0 | 24 | 0 | 26 | 18 | 0 | 14 | 0 | 0 | 12 | 0 | 0 | 11 |
| c1ccc(SSC2CCCC2)nc1 | 0 | 0 | 0 | 0 | 25 | 0 | 22 | 11 | 0 | 16 | 0 | 0 | 14 | 0 | 0 | 9 |
| CCCSSc1ccccn1 | 11 | 12 | 0 | 0 | 30 | 0 | 33 | 0 | 0 | 0 | 0 | 9 | 0 | 0 | 0 | 0 |
| CSSc1ccccn1 | 23 | 21 | 12 | 0 | 21 | 0 | 48 | 12 | 0 | 21 | 12 | 10 | 25 | 13 | 15 | 20 |
| CC(C)CSSc1ccccn1 | 0 | 0 | 0 | 0 | 40 | 0 | 50 | 0 | 0 | 0 | 0 | 0 | 0 | 0 | 0 | 0 |
